Data on 15 compounds can be found in US20220273659A1, “HETEROCYCLIC COMPOUNDS AS KINASE INHIBITORS” (NUVATION BIO INC., priority 2019, published 2022).

One experiment addresses T1, CDK6 (Homo sapiens, UniProt Q00534).
T1 construct: purchased Invitrogen PR8422B
Kind of experiment: In vitro kinase inhibition IC50, luminescence (ADP Glo), retinoblastoma substrate. The class given is biochemical. As to conditions: read-out: CDK6/D1 IC50. The method in brief:
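Recombinant CDK6 (5 nM) with retinoblastoma substrate (1 μM) and 25 μM ATP, compound at final 0.1–200 nM, incubated 2 h at room temperature. ADP formed detected by ADP-Glo luminescence. IC50 from four-parameter logistic fit of percent inhibition.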
In general terms: In ADP-Glo the light output rises with the ADP produced.

A further experiment has as its target T2, CDK4 (Homo sapiens, UniProt P11802).
T2 construct: purchased Invitrogen PR8064A
The description is as above. As to conditions: read-out: CDK4/D1 IC50. The class given is biochemical. The method in brief:
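CDK4 enzyme (5 nM, Invitrogen) was combined with test compound and a mix of retinoblastoma substrate (1 μM) plus ATP (25 μM) in kinase buffer, 30 μL/well in 96-well half area white plates. After 2H at room temperature, ADP Glo reagent stopped the reaction for 45 min, then detection reagent was added and luminescence was read.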

Experiment [1] deals with DU4475 breast carcinoma cells. In words: Cancer cell proliferation assay, single agent (cell viability). The class given is cell-based. As to conditions: Homo sapiens, DU-4475; Table 4; Rb negative; treatment 144 Hr with medium change at 72 Hr; Cell Titer-Glo or resazurin. The method in brief:
(§1)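 Cells seeded day 1, then exposed on day 2 to 7–9 compound concentrations (e.g. 1.1 nM–10 μM); BT-549 for 24 h, MCF-7 and DU4475 for 144 h with medium change at 72 h. Viability by CellTiter-Glo or resazurin; IC50 from variable-slope sigmoidal fit.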
In general terms: Cellular ATP, detected with luciferase, serves as a proxy for viable cell number.

The test system of experiment [2] is MCF-7 breast adenocarcinoma cells. Described as above. The class given is cell-based. As to conditions: Homo sapiens, MCF7, Table 4; Rb positive; treatment 144 Hr with medium change at 72 Hr; Cell Titer-Glo or resazurin. An outline of the steps: as §1
For the next experiment, the target named is T3, PI3Kδ kinase (Homo sapiens, UniProt O00329).
T3 construct: purchased Reaction Biology Corporation (assay service)
T3 sequence (O00329 whole entry): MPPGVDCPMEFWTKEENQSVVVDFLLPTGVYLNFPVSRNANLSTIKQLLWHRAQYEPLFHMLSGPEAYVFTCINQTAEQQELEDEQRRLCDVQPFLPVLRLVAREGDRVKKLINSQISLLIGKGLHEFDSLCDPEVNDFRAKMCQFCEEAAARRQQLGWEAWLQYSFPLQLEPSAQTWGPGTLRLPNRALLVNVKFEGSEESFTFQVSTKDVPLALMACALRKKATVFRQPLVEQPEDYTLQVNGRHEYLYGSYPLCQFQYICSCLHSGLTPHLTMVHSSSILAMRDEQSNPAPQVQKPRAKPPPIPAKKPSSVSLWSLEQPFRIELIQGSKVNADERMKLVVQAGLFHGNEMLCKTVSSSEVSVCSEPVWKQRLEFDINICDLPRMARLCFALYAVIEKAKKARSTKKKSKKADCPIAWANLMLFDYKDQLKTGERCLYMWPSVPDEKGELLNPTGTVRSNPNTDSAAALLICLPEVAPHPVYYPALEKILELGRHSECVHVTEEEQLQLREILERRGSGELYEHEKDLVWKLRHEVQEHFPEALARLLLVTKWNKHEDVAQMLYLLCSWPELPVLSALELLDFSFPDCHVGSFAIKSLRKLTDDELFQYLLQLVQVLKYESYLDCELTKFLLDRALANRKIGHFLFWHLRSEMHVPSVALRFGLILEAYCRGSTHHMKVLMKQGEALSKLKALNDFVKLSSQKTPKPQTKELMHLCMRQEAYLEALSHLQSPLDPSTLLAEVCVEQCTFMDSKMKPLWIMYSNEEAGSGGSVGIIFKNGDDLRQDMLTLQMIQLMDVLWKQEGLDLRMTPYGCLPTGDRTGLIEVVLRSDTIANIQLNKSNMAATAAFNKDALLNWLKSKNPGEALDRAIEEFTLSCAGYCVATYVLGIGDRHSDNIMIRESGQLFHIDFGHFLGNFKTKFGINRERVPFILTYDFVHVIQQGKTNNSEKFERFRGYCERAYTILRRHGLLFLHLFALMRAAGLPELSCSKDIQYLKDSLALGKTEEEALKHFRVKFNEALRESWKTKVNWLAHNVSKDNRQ
T3 sequence (P27986 whole entry partner): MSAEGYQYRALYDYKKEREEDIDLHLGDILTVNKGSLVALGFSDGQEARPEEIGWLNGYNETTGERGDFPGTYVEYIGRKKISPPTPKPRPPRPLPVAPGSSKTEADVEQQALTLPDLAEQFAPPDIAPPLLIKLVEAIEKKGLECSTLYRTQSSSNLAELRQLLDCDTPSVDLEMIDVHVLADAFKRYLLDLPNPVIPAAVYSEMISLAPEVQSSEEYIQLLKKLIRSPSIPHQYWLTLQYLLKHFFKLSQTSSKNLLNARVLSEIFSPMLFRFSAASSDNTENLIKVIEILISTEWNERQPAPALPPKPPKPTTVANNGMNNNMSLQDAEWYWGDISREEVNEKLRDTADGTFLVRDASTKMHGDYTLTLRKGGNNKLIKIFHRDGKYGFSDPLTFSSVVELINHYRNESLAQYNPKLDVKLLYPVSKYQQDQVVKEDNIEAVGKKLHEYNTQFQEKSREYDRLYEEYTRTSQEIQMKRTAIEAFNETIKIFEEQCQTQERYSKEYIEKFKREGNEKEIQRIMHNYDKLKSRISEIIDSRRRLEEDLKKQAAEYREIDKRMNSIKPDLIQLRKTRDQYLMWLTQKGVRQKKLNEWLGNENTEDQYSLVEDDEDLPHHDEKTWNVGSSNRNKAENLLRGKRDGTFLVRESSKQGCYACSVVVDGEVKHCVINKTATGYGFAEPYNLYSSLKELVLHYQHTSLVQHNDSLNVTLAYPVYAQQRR
In words: PI3Kδ kinase assay (ADP-Glo, Reaction Biology). The class given is biochemical. The method, then:
IC50 values of compounds against the PI3Kδ kinase were determined by an assay performed by Reaction Biology Corporation (Malvern, Pa.). Briefly, this assay was conducted in buffer (Tris-HCl 40 mM (pH7.5), Orthovanadate 3 mM, MgCl2 20 mM, DTT 2 mM, CHAPS 0.05%, DMSO 1%). PI3Kδ kinase was added to the reaction solution and mixed gently. The test compounds in 100% DMSO (at specific solutions) were mixed with the kinase reaction mixture to achieve the final compounds at pre-defined concentrations (e.g., range −0.5 nM to 100 μM) by Acoustic technology (Echo550; nanoliter range). After incubating for 10 min at room temp, ATP was added into the reaction mixture to initiate the reaction followed by a 30-min incubation at 30° C. After quenching the reaction with ADP-Glo reagent, the plates were incubated for 40 min. The Detection Mixture was added, and the plate was incubated for an additional 30 min. At the end of incubation, luminescence was measured. For data analysis, the luminescence was converted into μM ADP production based on ADP standard curves. The nonlinear regression to obtain the standard curve and IC50 values was performed using GraphPad Prism (GraphPad Software, Inc., San Diego, Calif.).

In the next experiment the target is T4, FMS kinase (Homo sapiens, UniProt P07333).
T4 construct: purchased Invitrogen (Life Technologies)
T4 sequence (P07333 20-972): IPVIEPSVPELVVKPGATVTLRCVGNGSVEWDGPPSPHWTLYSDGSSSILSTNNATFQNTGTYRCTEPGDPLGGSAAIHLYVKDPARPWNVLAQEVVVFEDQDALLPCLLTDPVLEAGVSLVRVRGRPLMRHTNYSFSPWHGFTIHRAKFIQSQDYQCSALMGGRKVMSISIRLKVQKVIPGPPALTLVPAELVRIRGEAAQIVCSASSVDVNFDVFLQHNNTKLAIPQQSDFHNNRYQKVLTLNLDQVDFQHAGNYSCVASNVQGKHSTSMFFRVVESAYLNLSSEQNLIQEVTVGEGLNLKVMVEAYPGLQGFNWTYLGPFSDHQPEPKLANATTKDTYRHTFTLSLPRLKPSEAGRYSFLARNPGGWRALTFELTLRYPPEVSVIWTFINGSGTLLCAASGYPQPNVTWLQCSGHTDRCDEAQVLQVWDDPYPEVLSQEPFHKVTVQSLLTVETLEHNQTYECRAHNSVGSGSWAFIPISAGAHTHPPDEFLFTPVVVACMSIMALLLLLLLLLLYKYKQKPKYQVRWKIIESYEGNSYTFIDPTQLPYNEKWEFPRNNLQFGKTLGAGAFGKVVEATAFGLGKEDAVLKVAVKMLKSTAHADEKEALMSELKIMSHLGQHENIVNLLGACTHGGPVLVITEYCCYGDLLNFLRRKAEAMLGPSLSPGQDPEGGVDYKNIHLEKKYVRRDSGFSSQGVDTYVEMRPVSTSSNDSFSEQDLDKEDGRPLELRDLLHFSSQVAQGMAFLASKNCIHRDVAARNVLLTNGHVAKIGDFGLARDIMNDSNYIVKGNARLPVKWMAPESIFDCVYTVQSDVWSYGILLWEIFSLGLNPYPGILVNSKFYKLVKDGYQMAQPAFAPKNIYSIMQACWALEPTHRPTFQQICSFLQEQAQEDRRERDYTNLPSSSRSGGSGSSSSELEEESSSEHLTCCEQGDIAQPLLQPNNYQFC
In words: LanthaScreen Eu Kinase Binding Assay (ATP, fluorescent-PolyGT substrate). The class given is biochemical. The method in brief:
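Kinase (1.25 nM) preincubated 10 min with 3-fold compound dilutions, then ATP 10 μM and fluorescent PolyGT substrate 200 nM added for 1 h in the dark at room temperature. Stopped with Tb-antibody (4 nM) and EDTA 20 mM; TR-FRET at 340 nm excitation, 495/520 nm emission; IC50 from four-parameter fit.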
A general note: TR-FRET usually uses a lanthanide donor and a delayed reading to cut background.

The structures appear in SMILES notation. Some results are limits rather than exact numbers.

T2 sequence (P11802 whole entry): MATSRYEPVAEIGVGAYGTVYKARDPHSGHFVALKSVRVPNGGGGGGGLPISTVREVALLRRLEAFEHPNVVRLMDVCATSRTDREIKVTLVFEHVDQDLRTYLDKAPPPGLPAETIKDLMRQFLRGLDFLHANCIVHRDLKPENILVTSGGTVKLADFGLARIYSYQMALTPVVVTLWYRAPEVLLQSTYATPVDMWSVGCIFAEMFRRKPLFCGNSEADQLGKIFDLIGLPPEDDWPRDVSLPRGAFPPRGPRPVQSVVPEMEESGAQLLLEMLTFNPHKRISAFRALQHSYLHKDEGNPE
T2 sequence (P24385 whole entry partner): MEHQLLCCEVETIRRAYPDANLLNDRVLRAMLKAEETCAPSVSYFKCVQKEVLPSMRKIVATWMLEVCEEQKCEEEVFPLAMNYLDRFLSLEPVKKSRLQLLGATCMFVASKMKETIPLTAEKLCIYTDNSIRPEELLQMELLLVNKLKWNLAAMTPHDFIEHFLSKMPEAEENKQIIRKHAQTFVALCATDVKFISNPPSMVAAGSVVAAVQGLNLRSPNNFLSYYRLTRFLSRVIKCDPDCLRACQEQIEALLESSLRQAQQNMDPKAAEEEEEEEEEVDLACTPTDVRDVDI
T1 sequence (Q00534 whole entry): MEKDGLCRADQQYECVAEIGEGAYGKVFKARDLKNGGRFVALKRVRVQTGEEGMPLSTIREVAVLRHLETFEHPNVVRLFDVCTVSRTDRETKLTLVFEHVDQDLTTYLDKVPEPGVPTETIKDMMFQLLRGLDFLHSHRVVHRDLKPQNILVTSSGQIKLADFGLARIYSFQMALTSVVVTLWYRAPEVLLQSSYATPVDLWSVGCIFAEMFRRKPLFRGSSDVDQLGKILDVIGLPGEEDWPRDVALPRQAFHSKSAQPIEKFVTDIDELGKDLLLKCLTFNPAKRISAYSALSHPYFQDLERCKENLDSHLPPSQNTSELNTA
T1 sequence (P24385 whole entry partner): as the sequence (P24385 whole entry partner) above

With `CN(C)CC(=O)N1CCc2cc(Nc3ncc4cc(C#N)c(=O)n(C5CCCC5)c4n3)ccc2C1` [Compound No. 54, 8-cyclopentyl-2-((2-(dimethylglycyl)-1,2,3,4-tetrahydroisoquinolin-6-yl)amino)-7-oxo-7,8-dihydropyrido[2,3-d]pyrimidine-6-carbonitrile], the IC50 at CDK6 is 3.5 nM; at CDK4 it was 3 nM; in experiment [1], 1100 nM; in experiment [2], 150 nM; on PI3Kδ kinase, 248 nM; at FMS kinase it was 7 nM.
On to `N#Cc1cc2cnc(Nc3ccc(N4CCN5CCCC5C4)c(F)c3)nc2n(C2CCCC2)c1=O` (centres unmarked) [Compound No. 55, 8-cyclopentyl-2-((3-fluoro-4-(hexahydropyrrolo[1,2-a]pyrazin-2(1H)-yl)phenyl)amino)-7-oxo-7,8-dihydropyrido[2,3-d]pyrimidine-6-carbonitrile], for which the IC50 at CDK6 was 16 nM; at CDK4 it was 6.5 nM; in experiment [1] it was 1260 nM; in experiment [2] it was 480 nM; against PI3Kδ kinase, 1690 nM; at FMS kinase it was 0.6 nM.
`CN1CCC(c2ccc(Nc3ncc4cc(C#N)c(=O)n(C5CCCC5)c4n3)cc2)CC1` [Compound No. 40, 8-cyclopentyl-2-((4-(1-methylpiperidin-4-yl)phenyl)amino)-7-oxo-7,8-dihydropyrido[2,3-d]pyrimidine-6-carbonitrile]: the IC50 at CDK6 is 76 nM; at CDK4, over 200 nM; in experiment [1], 2800 nM; in experiment [2], 133 nM; against PI3Kδ kinase it was 416 nM; on FMS kinase, 1 nM.
For the compound `N#Cc1cc2cnc(Nc3ccc(N4CCN5CCCCC5C4)c(F)c3)nc2n(C2CCCC2)c1=O` (centres unmarked) [Compound No. 59, 8-cyclopentyl-2-((3-fluoro-4-(octahydro-2H-pyrido[1,2-a]pyrazin-2-yl)phenyl)amino)-7-oxo-7,8-dihydropyrido[2,3-d]pyrimidine-6-carbonitrile], the IC50 at CDK6 is 22 nM; on CDK4 it was 6 nM; in experiment [1], 1320 nM; in experiment [2] it was 540 nM; at PI3Kδ kinase, 1310 nM; on FMS kinase it was 1 nM.
As to `CN1CCN(c2ccc(Nc3ncc4cc(C#N)c(=O)n(C5CCCC5)c4n3)cc2CO)CC1` [Compound No. 10, 8-cyclopentyl-2-((3-(hydroxymethyl)-4-(4-methylpiperazin-1-yl)phenyl)amino)-7-oxo-7,8-dihydropyrido[2,3-d]pyrimidine-6-carbonitrile], the IC50 at CDK6 was 1 nM; on CDK4, 1 nM; in experiment [1], 1640 nM; in experiment [2], 90 nM; against PI3Kδ kinase, 310 nM; on FMS kinase, under 1 nM.
Take `N#Cc1cc2cnc(Nc3ccc(C4CCNCC4)c(F)c3)nc2n(C2CCCC2)c1=O` [Compound No. 43, 8-cyclopentyl-2-((3-fluoro-4-(piperidin-4-yl)phenyl)amino)-7-oxo-7,8-dihydropyrido[2,3-d]pyrimidine-6-carbonitrile]: the IC50 on CDK6 was 3 nM; on CDK4, 5 nM; in experiment [2], 180 nM; at PI3Kδ kinase, 180 nM; at FMS kinase, 1.5 nM.
As for `CN1CCN(c2ccc(Nc3ncc4cc(C#N)c(=O)n(C5CCCC5)c4n3)cc2F)CC1` [Compound No. 36, 8-cyclopentyl-2-((3-fluoro-4-(4-methylpiperazin-1-yl)phenyl)amino)-7-oxo-7,8-dihydropyrido[2,3-d]pyrimidine-6-carbonitrile], the IC50 on CDK6 turned out to be 1 nM; at CDK4, 1 nM; in experiment [2], 315 nM; against PI3Kδ kinase, 1030 nM; on FMS kinase, 6.5 nM.
On to `CN(C)CC(=O)N1CCc2ccc(Nc3ncc4cc(C#N)c(=O)n(C5CCCC5)c4n3)cc2C1` [Compound No. 53, 8-cyclopentyl-2-((2-(dimethylglycyl)-1,2,3,4-tetrahydroisoquinolin-7-yl)amino)-7-oxo-7,8-dihydropyrido[2,3-d]pyrimidine-6-carbonitrile], for which the IC50 at CDK6 came to 4 nM; on CDK4 it was 2.5 nM; in experiment [1] it was 1280 nM; in experiment [2], 190 nM; against PI3Kδ kinase, 249 nM; at FMS kinase, 9.5 nM.
For the compound `CN(C)C1Cc2ccc(Nc3ncc4cc(C#N)c(=O)n(C5CCCC5)c4n3)cc2C1` (centres unmarked) [Compound No. 47, 8-cyclopentyl-2-((2-(dimethylamino)-2,3-dihydro-1H-inden-5-yl)amino)-7-oxo-7,8-dihydropyrido[2,3-d]pyrimidine-6-carbonitrile], the IC50 was 4 nM at CDK6; 9.5 nM at CDK4; 345 nM in experiment [2]; 345 nM against PI3Kδ kinase; 2.5 nM on FMS kinase.
Turning to `CCN(CC)CCOc1ccc(Nc2ncc3cc(C#N)c(=O)n(C4CCCC4)c3n2)cc1` [Compound No. 41, 8-cyclopentyl-2-((4-(2-(diethylamino)ethoxy)phenyl)amino)-7-oxo-7,8-dihydropyrido[2,3-d]pyrimidine-6-carbonitrile], the IC50 on CDK6 is 1 nM; on CDK4, 5.5 nM; in experiment [2], 164 nM; at PI3Kδ kinase, 405 nM; on FMS kinase it was under 1 nM.
Take `N#Cc1cc2cnc(Nc3ccn(C4CCNCC4)c(=O)c3)nc2n(C2CCCC2)c1=O` [Compound No. 60, 8-cyclopentyl-7-oxo-2-((2-oxo-1-(piperidin-4-yl)-1,2-dihydropyridin-4-yl)amino)-7,8-dihydropyrido[2,3-d]pyrimidine-6-carbonitrile]: the IC50 stood at 55 nM at CDK6; 52 nM at CDK4; 5080 nM in experiment [1]; 6900 nM in experiment [2]; 34 nM on PI3Kδ kinase; 18 nM on FMS kinase.
As to `CN1CCC(c2ccc(Nc3ncc4cc(C#N)c(=O)n(C5CCCC5)c4n3)cc2F)CC1` [Compound No. 46, 8-cyclopentyl-2-((3-fluoro-4-(1-methylpiperidin-4-yl)phenyl)amino)-7-oxo-7,8-dihydropyrido[2,3-d]pyrimidine-6-carbonitrile], the IC50 on CDK6 turned out to be 5 nM; on CDK4, 15 nM; in experiment [2], 275 nM; against PI3Kδ kinase it was 658 nM; on FMS kinase it was 2.5 nM.
With `CN1CCN(c2ccc(Nc3ncc4cc(C#N)c(=O)n([C@H]5CC[C@H](C)CC5)c4n3)cc2)CC1` [Compound No. 1, 8-((1r,4r)-4-methylcyclohexyl)-2-((4-(4-methylpiperazin-1-yl)phenyl)amino)-7-oxo-7,8-dihydropyrido[2,3-d]pyrimidine-6-carbonitrile], the IC50 at CDK6 was 1 nM; on CDK4 it was 2 nM; in experiment [2] it was 8060 nM; against PI3Kδ kinase, 389 nM; on FMS kinase, under 300 nM.
In the same order, the values of `CC(c1ccccc1)n1c(=O)c(C#N)cc2cnc(Nc3ccc(N4CCN(C)CC4)cc3)nc21` (centres unmarked) [Compound No. 35, 2-((4-(4-methylpiperazin-1-yl)phenyl)amino)-7-oxo-8-(1-phenylethyl)-7,8-dihydropyrido[2,3-d]pyrimidine-6-carbonitrile] are 91 nM, over 200 nM, 3880 nM, 738 nM and 7 nM.
For `N#Cc1cc2cnc(Nc3ccc(N4CCNCC4=O)c(F)c3)nc2n(C2CCCC2)c1=O` [Compound No. 57, 8-cyclopentyl-2-((3-fluoro-4-(2-oxopiperazin-1-yl)phenyl)amino)-7-oxo-7,8-dihydropyrido[2,3-d]pyrimidine-6-carbonitrile], the IC50 at CDK6 was determined as 12 nM; on CDK4, 6.5 nM; in experiment [1], 5180 nM; in experiment [2] it was 1480 nM; at PI3Kδ kinase it was 249 nM; at FMS kinase, 1 nM.
